{"source": "patent US8962322B2", "about": "“Enhancers of induced pluripotent stem cell reprogramming” (City of Hope, priority 2012, dated 2015)", "system": "OCT4 promoter", "assay": "Bisulfite genomic sequencing of OCT4 promoter in IMR90 fibroblasts", "format": "cell-based, human", "conditions": "IMR90 fibroblasts treated for two days", "procedure": "To uncover the mechanism of OAC 1-mediated improvement of reprogramming efficiency, it was tested whether OAC 1 functions through regulation of DNA methylation status on the endogenous Oct4 promoter. Human IMR90 fibroblast cells were treated with OAC1 or vehicle control for two days.\nBisulfite Genomic Sequencing: Genomic DNA was isolated from human IMR90 fibroblasts, MEFs, mouse ESCs, 4F+OAC1 and 4F+OAC2-iPSCs by digestion with proteinase K, followed by phenolchloroform extraction and ethanol precipitation. Bisulfite conversion of genomic DNAs was carried out using the EZ DNA Methylation-Gold kit (Zymo Research) according to manufacturer's instruction. The bisulfite-modified DNA was then used as a template for PCR to amplify the promoter regions of Oct4 and Nanog using PCR primers for human OCT4 (1), mouse Oct4 (52) and Nanog (2). The amplified products were cloned into the pCR2.1-TOPO cloning vector (Invitrogen), and 10 randomly selected clones were sequenced with T7 or M13R primers.", "data": [{"smiles": "O=C(Nc1cc2cc[nH]c2cn1)c1ccccc1", "note": "[OAC1, N-(1H-6-azaindol-5-yl)benzamide]", "values": [{"measurement": "OCT4 promoter methylation status versus DMSO", "value": "no significant difference"}]}]}
